According to the CheMixHub viscosity set:
Where “and” joins values, the source holds several entries; their conditions need not be identical. Equal entries are not always repeated.

Experiment: xn = mol fraction of the nth substance listed

BrCCBr + Cc1ccccc1
101.33 kPa
Conditions | viscosity [mPa·s]
298.15 K, x1 = 0.1229 | 0.6433
298.15 K, x1 = 0.2578 | 0.6736
298.15 K, x1 = 0.348 | 0.7383
298.15 K, x1 = 0.4549 | 0.8563
298.15 K, x1 = 0.5548 | 0.9001
298.15 K, x1 = 0.6537 | 1.015
298.15 K, x1 = 0.746 | 1.105
298.15 K, x1 = 0.8331 | 1.268
298.15 K, x1 = 0.9171 | 1.381
308.15 K, x1 = 0.1176 | 0.5499
308.15 K, x1 = 0.2377 | 0.6
308.15 K, x1 = 0.3568 | 0.6572
308.15 K, x1 = 0.4489 | 0.7283
308.15 K, x1 = 0.5524 | 0.8275
308.15 K, x1 = 0.652 | 0.9069
308.15 K, x1 = 0.7416 | 0.9937
308.15 K, x1 = 0.8319 | 1.111
308.15 K, x1 = 0.9144 | 1.233

Brc1ccccc1 + Cc1ccccc1
101 kPa
Conditions | viscosity [mPa·s]
293.15 K, x2 = 0.2 | 1.001
293.15 K, x2 = 0.4 | 0.885
293.15 K, x2 = 0.6 | 0.778
293.15 K, x2 = 0.8 | 0.677
298.15 K, x1 = 0.129 | 0.613
298.15 K, x1 = 0.267 | 0.672
298.15 K, x1 = 0.379 | 0.72
298.15 K, x1 = 0.505 | 0.786
298.15 K, x1 = 0.629 | 0.851
298.15 K, x1 = 0.736 | 0.91
298.15 K, x1 = 0.853 | 0.981
298.15 K, x1 = 0.882 | 0.996
298.15 K, x2 = 0.53 | 0.75
298.15 K, x2 = 0.623 | 0.7
298.15 K, x2 = 0.72 | 0.658
298.15 K, x2 = 0.869 | 0.603
303.15 K, x1 = 0.101 | 0.581
303.15 K, x1 = 0.129 | 0.574
303.15 K, x1 = 0.202 | 0.635
303.15 K, x1 = 0.267 | 0.626
303.15 K, x1 = 0.303 | 0.689
303.15 K, x1 = 0.379 | 0.674
303.15 K, x1 = 0.403 | 0.74
303.15 K, x1 = 0.503 | 0.788
303.15 K, x1 = 0.505 | 0.729
303.15 K, x1 = 0.603 | 0.831
303.15 K, x1 = 0.629 | 0.792
303.15 K, x1 = 0.703 | 0.877
303.15 K, x1 = 0.736 | 0.857
303.15 K, x1 = 0.802 | 0.918
303.15 K, x1 = 0.853 | 0.92
303.15 K, x1 = 0.882 | 0.938
303.15 K, x1 = 0.901 | 0.957
313.15 K, x2 = 0.2 | 0.786
313.15 K, x2 = 0.4 | 0.697
313.15 K, x2 = 0.6 | 0.614
313.15 K, x2 = 0.8 | 0.537

C1=C[C@H]2[C@@H](C1)[C@H]1C=C[C@@H]2C1 + Cc1ccccc1
viscosity [mPa·s], 101.2 kPa
Conditions | x1 = 0.1024 | x1 = 0.2018 | x1 = 0.3008 | x1 = 0.4006 | x1 = 0.4997 | x1 = 0.606 | x1 = 0.7014 | x1 = 0.7987 | x1 = 0.8991
293.15 K | 0.6849 | 0.7905 | 0.9144 | 1.08 | 1.279 | 1.57 | 1.948 | 2.495 | 3.305
298.15 K | 0.6448 | 0.7387 | 0.8543 | 1.001 | 1.174 | 1.44 | 1.758 | 2.24 | 2.96
303.15 K | 0.6068 | 0.69 | 0.7952 | 0.9255 | 1.083 | 1.313 | 1.602 | 2.024 | 2.665
308.15 K | 0.5742 | 0.6559 | 0.7533 | 0.8681 | 1.019 | 1.222 | 1.486 | 1.875 | 2.43
313.15 K | 0.5451 | 0.6205 | 0.7071 | 0.8118 | 0.9488 | 1.135 | 1.375 | 1.718 | 2.208
318.15 K | 0.5187 | 0.5889 | 0.6667 | 0.76 | 0.8866 | 1.062 | 1.283 | 1.58 | 2.012

C1COCCO1 + Cc1ccccc1
101 kPa
Conditions | viscosity
293.15 K, x1 = 0.6506 | 1.045 mPa·s
303.15 K, x1 = 0.0992 | 0.556 mPa·s
303.15 K, x1 = 0.1216 | 0.5749 mPa·s
303.15 K, x1 = 0.122 | 0.573 mPa·s
303.15 K, x1 = 0.1993 | 0.591 mPa·s
303.15 K, x1 = 0.2367 | 0.6251 mPa·s
303.15 K, x1 = 0.237 | 0.622 mPa·s
303.15 K, x1 = 0.2925 | 0.628 mPa·s
303.15 K, x1 = 0.347 | 0.675 mPa·s
303.15 K, x1 = 0.3999 | 0.676 mPa·s
303.15 K, x1 = 0.453 | 0.7299 mPa·s and 0.729 mPa·s
303.15 K, x1 = 0.4961 | 0.723 mPa·s
303.15 K, x1 = 0.554 | 0.779 mPa·s
303.15 K, x1 = 0.5541 | 0.781 mPa·s
303.15 K, x1 = 0.5981 | 0.778 mPa·s
303.15 K, x1 = 0.65 | 0.831 mPa·s
303.15 K, x1 = 0.6504 | 0.8368 mPa·s
303.15 K, x1 = 0.6985 | 0.843 mPa·s
303.15 K, x1 = 0.7438 | 0.8912 mPa·s
303.15 K, x1 = 0.744 | 0.882 mPa·s
303.15 K, x1 = 0.8009 | 0.918 mPa·s
303.15 K, x1 = 0.8327 | 0.9416 mPa·s
303.15 K, x1 = 0.833 | 0.939 mPa·s
303.15 K, x1 = 0.8967 | 0.998 mPa·s
303.15 K, x1 = 0.918 | 0.9965 mPa·s and 0.995 mPa·s
308.15 K, x1 = 0.1 | 0.533 mPa·s
308.15 K, x1 = 0.3 | 0.593 mPa·s
308.15 K, x1 = 0.4 | 0.629 mPa·s
308.15 K, x1 = 0.5 | 0.669 mPa·s
308.15 K, x1 = 0.6 | 0.709 mPa·s
308.15 K, x1 = 0.7 | 0.764 mPa·s
308.15 K, x1 = 0.9 | 0.893 mPa·s

COC(=O)CC(=O)OC + Cc1ccccc1
303.15 K, 101 kPa
Conditions | viscosity [mPa·s]
x1 = 0.0934 | 0.5584
x1 = 0.1891 | 0.6061
x1 = 0.2852 | 0.6706
x1 = 0.3836 | 0.7507
x1 = 0.4821 | 0.8493
x1 = 0.5831 | 0.9701
x1 = 0.6852 | 1.122
x1 = 0.7891 | 1.307
x1 = 0.8932 | 1.522

COc1ccccc1O + Cc1ccccc1
303.15 K, 101 kPa
Conditions | viscosity [mPa·s]
x2 = 0.1 | 3.17
x2 = 0.2 | 2.47
x2 = 0.3 | 1.83
x2 = 0.4 | 1.5
x2 = 0.5 | 1.2
x2 = 0.6 | 0.981
x2 = 0.7 | 0.815
x2 = 0.8 | 0.7
x2 = 0.9 | 0.599

BrCCBr + Cc1ccccc1C
101.33 kPa
Conditions | viscosity [mPa·s]
298.15 K, x1 = 0.1292 | 0.7932
298.15 K, x1 = 0.261 | 0.8771
298.15 K, x1 = 0.3856 | 0.9602
298.15 K, x1 = 0.4919 | 1.032
298.15 K, x1 = 0.585 | 1.098
298.15 K, x1 = 0.6529 | 1.182
298.15 K, x1 = 0.7597 | 1.263
298.15 K, x1 = 0.8472 | 1.374
298.15 K, x1 = 0.9267 | 1.487
308.15 K, x1 = 0.1371 | 0.5822
308.15 K, x1 = 0.2566 | 0.6257
308.15 K, x1 = 0.3821 | 0.6992
308.15 K, x1 = 0.4845 | 0.7526
308.15 K, x1 = 0.5874 | 0.8292
308.15 K, x1 = 0.6798 | 0.9216
308.15 K, x1 = 0.7647 | 1.018
308.15 K, x1 = 0.8499 | 1.154
308.15 K, x1 = 0.9228 | 1.273

Brc1ccccc1 + Cc1ccccc1C
101 kPa
Conditions | viscosity [mPa·s]
293.15 K, x1 = 0.114 | 0.795
293.15 K, x1 = 0.2198 | 0.827
293.15 K, x1 = 0.3257 | 0.862
293.15 K, x1 = 0.4383 | 0.893
293.15 K, x1 = 0.542 | 0.931
293.15 K, x1 = 0.6615 | 0.962
293.15 K, x1 = 0.7764 | 1
293.15 K, x1 = 0.882 | 1.035
298.15 K, x1 = 0.1101 | 0.728
298.15 K, x1 = 0.2223 | 0.765
298.15 K, x1 = 0.3227 | 0.795
298.15 K, x1 = 0.4226 | 0.826
298.15 K, x1 = 0.5207 | 0.863
298.15 K, x1 = 0.6643 | 0.9
298.15 K, x1 = 0.772 | 0.938
298.15 K, x1 = 0.8925 | 0.969
303.15 K, x1 = 0.117 | 0.667
303.15 K, x1 = 0.2219 | 0.701
303.15 K, x1 = 0.3366 | 0.734
303.15 K, x1 = 0.4539 | 0.77
303.15 K, x1 = 0.5398 | 0.8
303.15 K, x1 = 0.6572 | 0.834
303.15 K, x1 = 0.7877 | 0.876
303.15 K, x1 = 0.9122 | 0.91

COc1ccccc1O + Cc1ccccc1N
303.15 K, 101 kPa
Conditions | viscosity [mPa·s]
x2 = 0.1 | 4.73
x2 = 0.2 | 4.93
x2 = 0.3 | 5.2
x2 = 0.34 | 5.22
x2 = 0.36 | 5.19
x2 = 0.4 | 5.17
x2 = 0.5 | 5.12
x2 = 0.6 | 4.82
x2 = 0.7 | 4.38
x2 = 0.8 | 4
x2 = 0.9 | 3.58
